Data: patent US10155765B2, “Carboxamide inhibitors of IRAK4 activity” (MERCK SHARP & DOHME CORP., priority 2015, dated 2018)
Where a name gives a salt, the structure may show the parent alone.

target: IRAK4 (Homo sapiens (Human), UniProt Q9NWZ3); assay: IRAK4 Kinase Assay (IMAP fluorescence polarization); assay type: biochemical; details: GST tagged IRAK4, 100 μM ATP, 30 minutes at 25° C., IMAP FP
Description: Other assays are known in the literature and could be readily performed by those of skill in the art.
The reaction is initiated by the addition of ATP.

Chain of IRAK4 (Q9NWZ3 whole entry): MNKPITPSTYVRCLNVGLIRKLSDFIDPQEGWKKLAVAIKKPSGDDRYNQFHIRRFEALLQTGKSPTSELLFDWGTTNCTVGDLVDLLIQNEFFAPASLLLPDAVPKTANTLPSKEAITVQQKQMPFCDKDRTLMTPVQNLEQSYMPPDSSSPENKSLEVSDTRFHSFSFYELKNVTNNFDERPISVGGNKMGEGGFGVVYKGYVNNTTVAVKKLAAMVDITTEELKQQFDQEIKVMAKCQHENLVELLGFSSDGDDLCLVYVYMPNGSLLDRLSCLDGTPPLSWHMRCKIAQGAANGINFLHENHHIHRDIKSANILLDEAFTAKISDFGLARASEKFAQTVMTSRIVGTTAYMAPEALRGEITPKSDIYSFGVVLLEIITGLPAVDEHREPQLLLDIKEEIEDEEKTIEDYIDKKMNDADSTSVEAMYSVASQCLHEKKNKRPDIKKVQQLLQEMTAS

SMILES | IC50
Cn1cc(NC(=O)c2cnn3ccc(N[C@H]4CCS(=O)(=O)C[C@H]4N)nc23)c(C(N)=O)n1 (relative stereo) [Example 4, 5-{[cis-3-amino-1,1-dioxidotetrahydro-2H-thiopyran-4-yl]amino}-N-(3-carbamoyl-1-methyl-1H-pyrazol-4-yl)pyrazolo[1,5-a]pyrimidine-3-carboxamide trifluoroacetate] | 5 nM
Cn1cc(NC(=O)c2cnn3ccc(N[C@H]4CS(=O)(=O)CC[C@H]4N)nc23)c(C(N)=O)n1 (relative stereo) [Example 5, 5-{[cis-4-amino-1,1-dioxidotetrahydro-2H-thiopyran-3-yl]amino}-N-(3-carbamoyl-1-methyl-1H-pyrazol-4-yl)pyrazolo[1,5-a]pyrimidine-3-carboxamide trifluoroacetate] | 15 nM
NC(=O)c1nn(-c2cccnc2)cc1NC(=O)c1cnn2ccc(N[C@H]3CCCC[C@H]3N)nc12 (relative stereo) [Example 6, 5-{[cis-2-aminocyclohexyl]amino}-N-(3-carbamoyl-1-pyridin-3-yl-1H-pyrazol-4-yl)pyrazolo[1,5-a]pyrimidine-3-carboxamide] | 0.8 nM
CN1CCCC(n2cc(NC(=O)c3cnn4ccc(N[C@H]5CCCC[C@H]5N)nc34)c(C(N)=O)n2)C1 (relative stereo) [Example 10, 5-{[cis-2-aminocyclohexyl]amino}-N-[3-carbamoyl-1-(1-methylpiperidin-3-yl)-1H-pyrazol-4-yl]pyrazolo[1,5-a]pyrimidine-3-carboxamide trifluoroacetate] | 25 nM
CNC(=O)c1nn(C)cc1NC(=O)c1cnn2ccc(N[C@H]3CCCC[C@H]3N)nc12 (relative stereo) [Example 16, 5-{[cis-2-aminocyclohexyl]amino}-N-[1-methyl-3-(methylcarbamoyl)-1H-pyrazol-4-yl]pyrazolo[1,5-a]pyrimidine-3-carboxamide trifluoroacetate] | 18 nM
CN(C)C(=O)c1nn(C)cc1NC(=O)c1cnn2ccc(N[C@H]3CCCC[C@H]3N)nc12 (relative stereo) [Example 17, 5-{[cis-2-aminocyclohexyl]amino}-N-[3-(dimethylcarbamoyl)-1-methyl-1H-pyrazol-4-yl]pyrazolo[1,5-a]pyrimidine-3-carboxamide trifluoroacetate] | 150 nM
CS(=O)(=O)N1CCC(n2cc(NC(=O)c3cnn4ccc(N[C@H]5CCCC[C@H]5N)nc34)c(C(N)=O)n2)CC1 (relative stereo) [Example 18, 5-{[cis-2-Aminocyclohexyl]amino}-N-{3-carbamoyl-1-[1-(methylsulfonyl)piperidin-4-yl]-1H-pyrazol-4-yl}pyrazolo[1,5-a]pyrimidine-3-carboxamide] | 2 nM
CN1CCC(n2cc(NC(=O)c3cnn4ccc(N[C@H]5CCCC[C@H]5N)nc34)c(C(N)=O)n2)CC1 (relative stereo) [Example 19, 5-{[cis-2-Aminocyclohexyl]amino}-N-[3-carbamoyl-1-(1-methylpiperidin-4-yl)-1H-pyrazol-4-yl]pyrazolo[1,5-a]pyrimidine-3-carboxamide] | 2 nM
CS(=O)(=O)N1CCCC(n2cc(NC(=O)c3cnn4ccc(N[C@H]5CCCC[C@H]5N)nc34)c(C(N)=O)n2)C1 (relative stereo) [Example 20, 5-{[cis-2-aminocyclohexyl]amino}-N-{3-carbamoyl-1-[1-(methylsulfonyl)piperidin-3-yl]-1H-pyrazol-4-yl}pyrazolo[1,5-a]pyrimidine-3-carboxamide trifluoroacetate] | 4 nM
Cn1cc(NC(=O)c2cnn3ccc(N[C@H]4COCC[C@H]4N)nc23)c(C(N)=O)n1 [Example 1, 5-(((3R,4R)-4-Aminotetrahydro-2H-pyran-3-yl)amino)-N-(3-carbamoyl-1-methyl-1H-pyrazol-4-yl)pyrazolo[1,5-a]pyrimidine-3-carboxamide] | 31 nM
Cn1cc(NC(=O)c2cnn3ccc(N[C@@H]4CCOC[C@@H]4N)nc23)c(C(N)=O)n1 [Example 2, 5-{[(3R,4R)-3-aminotetrahydro-2H-pyran-4-yl]amino}-N-(3-carbamoyl-1-methyl-1H-pyrazol-4-yl)pyrazolo[1,5-a]pyrimidine-3-carboxamide trifluoroacetate] | 0.6 nM
Cn1cc(NC(=O)c2cnn3ccc(N[C@@H]4CCCC(F)(F)[C@@H]4N)nc23)c(C(N)=O)n1 [Example 3, 5-{[(1R,2R)-2-amino-3,3-difluorocyclohexyl]amino}-N-(3-carbamoyl-1-methyl-1H-pyrazol-4-yl)pyrazolo[1,5-a]pyrimidine-3-carboxamide trifluoroacetate] | 32 nM
NCCNc1ccn2ncc(C(=O)Nc3cn(-c4cccnc4)nc3C(N)=O)c2n1 [Example 11, 5-[(2-aminoethyl)amino]-N-(3-carbamoyl-1-pyridin-3-yl-1H-pyrazol-4-yl)pyrazolo[1,5-a]pyrimidine-3-carboxamide] | 0.7 nM
Cn1cc(NC(=O)c2cnn3ccc(NC4CCCCCC4N)nc23)c(C(N)=O)n1 (centres unmarked) [Example 13, 5-[(2-aminocycloheptyl)amino]-N-(3-carbamoyl-1-methyl-1H-pyrazol-4-yl)pyrazolo[1,5-a]pyrimidine-3-carboxamide] | 2 nM
Cn1cc(NC(=O)c2cnn3ccc(NC4CCNC4)nc23)c(C(N)=O)n1 (centres unmarked) [Example 14, N-(3-carbamoyl-1-methyl-1H-pyrazol-4-yl)-5-(pyrrolidin-3-ylamino)pyrazolo[1,5-a]pyrimidine-3-carboxamide hydrochloride] | 120 nM
Cn1cc(NC(=O)c2cnn3ccc(NC4CCCNC4)nc23)c(C(N)=O)n1 (centres unmarked) [Example 15, N-(3-carbamoyl-1-methyl-1H-pyrazol-4-yl)-5-(piperidin-3-ylamino)pyrazolo[1,5-a]pyrimidine-3-carboxamide hydrochloride] | 33 nM
CCn1cc(NC(=O)c2cnn3ccc(N[C@@H]4CCCC[C@@H]4N)nc23)c(C(N)=O)n1 [Example 21, 5-{[(1R,2S)-2-Aminocyclohexyl]amino}-N-(3-carbamoyl-1-ethyl-1H-pyrazol-4-yl)pyrazolo[1,5-a]pyrimidine-3-carboxamide] | 0.6 nM
CC(C)n1cc(NC(=O)c2cnn3ccc(N[C@@H]4CCCC[C@@H]4N)nc23)c(C(N)=O)n1 [Example 22, 5-{[(1R,2S)-2-aminocyclohexyl]amino}-N-[3-carbamoyl-1-(1-methylethyl)-1H-pyrazol-4-yl]pyrazolo[1,5-a]pyrimidine-3-carboxamide trifluoroacetate] | 1 nM
NC(=O)c1nn(CCO)cc1NC(=O)c1cnn2ccc(N[C@@H]3CCCC[C@@H]3N)nc12 [Example 23, 5-{[(1R,2S)-2-aminocyclohexyl]amino}-N-[3-carbamoyl-1-(2-hydroxyethyl)-1H-pyrazol-4-yl]pyrazolo[1,5-a]pyrimidine-3-carboxamide trifluoroacetate] | 1 nM
COCCn1cc(NC(=O)c2cnn3ccc(N[C@@H]4CCCC[C@@H]4N)nc23)c(C(N)=O)n1 [Example 24, 5-{[(1R,2S)-2-aminocyclohexyl]amino}-N-[3-carbamoyl-1-(2-methoxyethyl)-1H-pyrazol-4-yl]pyrazolo[1,5-a]pyrimidine-3-carboxamide] | 3 nM
CN1CCCC(Cn2cc(NC(=O)c3cnn4ccc(N[C@@H]5CCCC[C@@H]5N)nc34)c(C(N)=O)n2)C1 (stereo partly drawn) [Example 25, 5-{[(1R,2S)-2-aminocyclohexyl]amino}-N-{3-carbamoyl-1-[(1-methylpiperidin-3-yl)methyl]-1H-pyrazol-4-yl}pyrazolo[1,5-a]pyrimidine-3-carboxamide trifluoroacetate] | 2 nM
Cn1cc(NC(=O)c2cnn3ccc(NC4CCCCC4)nc23)c(C(N)=O)n1 [Example 26, N-(3-carbamoyl-1-methyl-1H-pyrazol-4-yl)-5-(cyclohexylamino)pyrazolo[1,5-a]pyrimidine-3-carboxamide trifluoroacetate] | 180 nM
Cn1cc(NC(=O)c2cnn3ccc(NC4CCCCC4O)nc23)c(C(N)=O)n1 (centres unmarked) [Example 27, N-(3-carbamoyl-1-methyl-1H-pyrazol-4-yl)-5-[(2-hydroxycyclohexyl)amino]pyrazolo[1,5-a]pyrimidine-3-carboxamide] | 210 nM
Cn1cc(NC(=O)c2cnn3ccc(NCC4CNC(=O)C4)nc23)c(C(N)=O)n1 (centres unmarked) [Example 29, N-(3-carbamoyl-1-methyl-1H-pyrazol-4-yl)-5-{[(5-oxopyrrolidin-3-yl)methyl]amino}pyrazolo[1,5-a]pyrimidine-3-carboxamide] | 270 nM
Cn1cc(NC(=O)c2cnn3ccc(N4CCOCC4)nc23)c(C(N)=O)n1 [Example 30, N-(3-carbamoyl-1-methyl-1H-pyrazol-4-yl)-5-morpholin-4-ylpyrazolo[1,5-a]pyrimidine-3-carboxamide hydrochloride] | 240 nM
Cn1cc(NC(=O)c2cnn3ccc(N4CCNCC4)nc23)c(C(N)=O)n1 [Example 31, N-(3-carbamoyl-1-methyl-1H-pyrazol-4-yl)-5-piperazin-1-ylpyrazolo[1,5-a]pyrimidine-3-carboxamide hydrochloride] | 37 nM
NC(=O)Cn1cc(NC(=O)c2cnn3ccc(N[C@@H]4CCCC[C@@H]4N)nc23)c(C(N)=O)n1 [Example 32, 5-{[(1R,2S)-2-Aminocyclohexyl]amino}-N-[1-(2-amino-2-oxoethyl)-3-carbamoyl-1H-pyrazol-4-yl]pyrazolo[1,5-a]pyrimidine-3-carboxamide] | 3 nM
CNS(=O)(=O)c1ccc(-n2cc(NC(=O)c3cnn4ccc(N5CCNCC5)nc34)c(C(N)=O)n2)cc1 [Example 33, N-{3-Carbamoyl-1-[4-(methylsulfamoyl)phenyl]-1H-pyrazol-4-yl}-5-piperazin-1-ylpyrazolo[1,5-a]pyrimidine-3-carboxamide] | 4 nM
NC(=O)c1nn(-c2ccncc2)cc1NC(=O)c1cnn2ccc(N3CCNCC3)nc12 [Example 34, N-(3-carbamoyl-1-pyridin-4-yl-1H-pyrazol-4-yl)-5-piperazin-1-ylpyrazolo[1,5-a]pyrimidine-3-carboxamide trifluoroacetate] | 25 nM
